The conditions of series [1]: cited from earlier work.
For series [2], the target named is T1, Human pancreatic lipase (Homo sapiens, UniProt P16233).
T1 construct: purchased Sigma-Aldrich
T1 sequence (P16233 17-465): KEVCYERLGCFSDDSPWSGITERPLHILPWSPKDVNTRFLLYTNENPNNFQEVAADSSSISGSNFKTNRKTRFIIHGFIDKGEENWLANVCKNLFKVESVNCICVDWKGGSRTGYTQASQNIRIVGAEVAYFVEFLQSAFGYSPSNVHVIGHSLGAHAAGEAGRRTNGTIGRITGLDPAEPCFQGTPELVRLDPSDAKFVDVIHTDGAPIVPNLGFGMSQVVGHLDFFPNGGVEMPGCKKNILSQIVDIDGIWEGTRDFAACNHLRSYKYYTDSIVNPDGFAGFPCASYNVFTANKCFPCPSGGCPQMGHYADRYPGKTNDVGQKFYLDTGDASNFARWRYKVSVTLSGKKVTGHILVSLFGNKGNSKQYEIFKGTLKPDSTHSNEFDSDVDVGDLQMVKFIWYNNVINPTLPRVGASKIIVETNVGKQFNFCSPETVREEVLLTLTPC
T1 sequence (P04118 23-112 partner): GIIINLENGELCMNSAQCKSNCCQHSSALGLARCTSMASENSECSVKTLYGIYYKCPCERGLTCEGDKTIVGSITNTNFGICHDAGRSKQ
The series is described as follows: Pancreatic Lipase (PL) inhibitory test (Lipase-PS kit). Format: biochemical. Particulars: FIG. 3 / FIG. 14. As to the method:
A Pancreatic Lipase (PL) inhibitory test was performed with a commercial kit (Lipase-PSTM Trinity Biotech USA, Jamestown, N.Y.). Lipase-PSTM reagents were obtained from Trinity Biotech USA (Lipase-PSTM was manufactured by Sigma Diagnostics (Procedure No. 805, Sigma-Aldrich, St. Louis, Mo. until 2003)). […] Louis, Mo.). […] Activator reagent (300 μL) was added and mixed by gentle inversion and the samples were incubated again for 3 min. at 37° C. The recorded rate of increase in absorbance at 550 nm due to the formation of quinone diimine dye was used to determine the pancreatic lipase activity in the samples prepared, as detailed in the literature. Lott, J. A., et al., Lipase Isoforms and Amylase Isoenzymes: Assays and Application in the Diagnosis of Acute Pancreatitis, Clinical Chemistry, 37, 361 (1991); Moreno […]., Fried […]., 2003, Inhibitory effects of grape seed extract on lipases, Nutrition 19, 876-879 (hereinafter “Moreno et al. 2003”).

For `CCCCCCCCCCC[C@@H](C[C@@H]1OC(=O)[C@H]1CCCCCC)OC(=O)[C@H](CC(C)C)NC=O` [Orlistat], the “diarrhea (in words)” value in series [1] (literature) is given as “common side effect”. The “inhibition of dietary fat absorption” value in series [1] (recommended therapeutic dose of 120 mg three times a day) is listed as “about 30%”.

For `O=c1ccc2cc(O)c(O)cc2o1` [esculetin, 6,7-dihydroxycoumarin], the “inhibitory effect on in vitro pancreatic lipase (in words)” value in series [2] is recorded as “particularly strong inhibitory effect”; in series [2] (listed as Esculetin), “strong inhibitory effect on PL in a dose dependent manner”.

(Values after US20050271755A1, “Phytomedicinal compositions for the control of lipid accumulation and metabolism in mammals” (priority 2004, published 2005).)
